What was measured:
human DGAT1 = target: T1, human DGAT1 (Homo sapiens, UniProt O75907); test: DGAT1 FlashPlate inhibition assay with DGAT1 membrane preparations; assay type: biochemical; conditions: IC50 values expressed in M; pIC50 = -logIC50; inhibition of DGAT1 activity
T1 construct: FLAG (N); made in house; host or cells: SF9 insect cells (baculovirus, pFastBac); total cell membranes used as the enzyme source
T1 sequence (O75907 1-488): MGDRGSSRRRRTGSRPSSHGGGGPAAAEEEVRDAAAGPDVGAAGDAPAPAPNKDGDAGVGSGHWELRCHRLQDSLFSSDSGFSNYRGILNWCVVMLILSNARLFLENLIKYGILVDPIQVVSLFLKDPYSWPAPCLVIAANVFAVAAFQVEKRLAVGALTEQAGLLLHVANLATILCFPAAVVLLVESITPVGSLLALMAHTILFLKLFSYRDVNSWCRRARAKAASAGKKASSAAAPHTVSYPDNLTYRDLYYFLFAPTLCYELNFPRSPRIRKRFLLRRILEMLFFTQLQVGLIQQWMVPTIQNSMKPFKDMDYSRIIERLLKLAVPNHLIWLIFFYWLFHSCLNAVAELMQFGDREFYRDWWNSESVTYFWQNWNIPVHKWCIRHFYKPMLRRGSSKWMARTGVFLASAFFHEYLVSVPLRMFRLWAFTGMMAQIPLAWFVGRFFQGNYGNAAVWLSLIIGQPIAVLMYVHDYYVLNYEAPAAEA
Outline: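 Membranes from Sf9 cells expressing N-FLAG human DGAT1 were incubated 120 min at 37 °C with 50 μM DAG in PC/PS micelles and 8.4 μM [3H]-oleoylCoA in Tris pH 7.4, MgCl2, EDTA and 0.2% BSA. The reaction was stopped with N-ethylmaleimide, and triacylglycerol was read by FlashPlate radioluminescence and normalised to enzyme and no-enzyme controls.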

Row | SMILES | melting point [°C] | IC50 (human DGAT1) [nM]
1 | O=C(Nc1ccc(N2CCN(C(=O)Nc3c(Cl)cccc3Cl)CC2)cc1)c1ccccc1-c1ccc(C(F)(F)F)cc1 [Compound 9] | 289 | 30.2
2 | Cc1nc(C(=O)Nc2ccc(N3CCN(C(=O)Nc4c(Cl)cccc4Cl)CC3)cc2)c(-c2ccc(C(C)C)cc2)s1 [Compound 2] |  | 112
3 | CC(C)(C)c1ccc(-c2ccccc2C(=O)Nc2ccc(C3CCN(C(=O)Nc4c(Cl)cccc4Cl)CC3)cc2)cc1 [Compound 62] |  | 550
4 | CC(C)c1ccc(-c2ccccc2C(=O)Nc2ccc(C3CCN(C(=O)Nc4c(Cl)cccc4Cl)CC3)cc2)cc1 [Compound 61] |  | 427
5 | O=C(Nc1ccc(N2CCN(C(=S)Nc3c(Cl)cccc3Cl)CC2)cc1)c1ccccc1-c1ccc(C(F)(F)F)cc1 [Compound 8] | 224.5 | 214
6 | CN1CCN(c2ccc(C(=O)Nc3ccc(N4CCN(C(=O)Nc5c(Cl)cccc5Cl)CC4)cc3)cc2)CC1 [Compound 44] |  | 100
7 | Cc1ccc([N+](=O)[O-])c(NC(=O)N2CCN(c3ccc(NC(=O)c4ccccc4-c4ccc(C(F)(F)F)cc4)cc3)CC2)c1C [Compound 101] |  | 525
8 | CN1CC(C(=O)Nc2ccc(N3CCN(C(=O)Nc4c(Cl)cccc4Cl)CC3)cc2)CC1=O (centres unmarked) [Compound 11] |  | 1120
9 | Cc1ccc2c(c1)C(=O)c1cc(C)cc(C(=O)Nc3ccc(N4CCN(C(=O)Nc5c(Cl)cccc5Cl)CC4)cc3)c1-2 [Compound 67] |  | 148
10 | Cc1cc(C)c(NC(=O)N2CCN(c3ccc(NC(=O)c4ccccc4-c4ccc(C(F)(F)F)cc4)cc3)CC2)c(C)c1 [Compound 85] |  | 178
11 | Cc1nc(C(=O)Nc2ccc(C3CCN(C(=O)Nc4c(Cl)cccc4Cl)CC3)cc2)c(-c2cccc(C(F)(F)F)c2)s1 [Compound 53] |  | 1480
12 | Cc1cc(Br)cc(C)c1NC(=O)N1CCN(c2ccc(NC(=O)c3ccccc3-c3ccc(C(F)(F)F)cc3)cc2)CC1 [Compound 100] |  | 1550
13 | Cc1nc(C(=O)Nc2ccc(C3CCN(C(=O)Nc4c(Cl)cccc4Cl)CC3)cc2)c(-c2ccc(C(C)C)cc2)s1 [Compound 3] |  | 1170
14 | O=C(O)Cc1cccc(C(=O)Nc2ccc(N3CCN(C(=O)Nc4c(Cl)cc(CN5CCCCC5)cc4Cl)CC3)cc2)c1 [Compound 143] |  | 3310
15 | CCC(C)c1ccccc1NC(=O)N1CCN(c2ccc(NC(=O)c3ccccc3-c3ccc(C(F)(F)F)cc3)cc2)CC1 (centres unmarked) [Compound 79] |  | 6460
16 | O=C(Nc1ccc(C2CCN(C(=O)Nc3c(Cl)cccc3Cl)CC2)cc1)c1ccccc1-c1ccccc1 [Compound 56] |  | 331
17 | Cc1cc(C)c(NC(=O)N2CCN(c3ccc(NC(=O)c4ccccc4-c4ccc(C(F)(F)F)cc4)cc3)CC2)c(Br)c1 [Compound 103] |  | 200
18 | CC(C)OC(=O)c1ccc(-c2cccc(C(=O)Nc3ccc(N4CCN(C(=O)Nc5c(Cl)cccc5Cl)CC4)cc3)c2)cc1 [Compound 127] |  | 25.1
19 | O=C(Nc1ccc(C2=CCN(C(=O)NCC3CCCCC3)CC2)cc1)c1ccccc1-c1ccc(C(F)(F)F)cc1 [Compound 120] |  | 4270
20 | Cc1ccccc1NC(=O)N1CCN(c2ccc(NC(=O)c3ccccc3-c3ccc(C(F)(F)F)cc3)cc2)CC1 [Compound 74] |  | 1100

Results, then the compound that gave them:

Row | melting point [°C] | IC50 (human DGAT1) [nM] | SMILES
21 | 247.52 | 12.6 | COC(=O)c1cccc(C(=O)Nc2ccc(N3CCN(C(=O)Nc4c(Cl)cc(CN5CCCC5)cc4Cl)CC3)cc2)c1 [Compound 140]
22 | 254.77 | 1.82 | CN1CCN(C(=O)Cc2cc(Cl)c(NC(=O)N3CCN(c4ccc(NC(=O)c5cccc(N6CCCC6)c5)cc4)CC3)c(Cl)c2)CC1 [Compound 136]
23 | 270.85 | 4.17 | CC(C)N(Cc1cc(Cl)c(NC(=O)N2CCN(c3ccc(NC(=O)c4cccc(N5CCCC5)c4)cc3)CC2)c(Cl)c1)C(C)C [Compound 137]
24 | 212.69 | 6.46 | O=C(Nc1ccc(N2CCN(C(=O)Oc3c(Cl)cccc3Cl)CC2)cc1)c1cccc(N2CCCC2)c1 [Compound 139]
25 |  | 11 | O=C(Nc1ccc(N2CCN(C(=O)Nc3c(Cl)cccc3Cl)CC2)cc1)c1cccc(N2CCCC2=O)c1 [Compound 13]
26 |  | 5.01 | Cc1cc(C)n(-c2cccc(C(=O)Nc3ccc(N4CCN(C(=O)Nc5c(Cl)cccc5Cl)CC4)cc3)c2)n1 [Compound 28]
27 |  | 24.5 | O=C(Nc1ccc(N2CCN(C(=O)Nc3c(Cl)cccc3Cl)CC2)cc1)c1ccccc1-c1ccco1 [Compound 4]
28 |  | 5.37 | O=C(Nc1cccc(N2CCCC2)c1)c1ccc(N2CCN(C(=O)Nc3c(Cl)cc(CCN4CCCC4)cc3Cl)CC2)cc1 [Compound 129]
29 |  | 2.09 | Cc1nc(-c2cccc(C(=O)Nc3ccc(N4CCN(C(=O)Nc5c(Cl)cccc5Cl)CC4)cc3)c2)cs1 [Compound 17]

— patent US9227935B2, “Piperidine/piperazine derivatives” (Janssen Pharmaceutica N.V., priority 2007, dated 2016)
